Data reported in the Kinase Knowledgebase extract (Sharma et al. 2016).

What was measured:
[1] = target: PIK3CA, P42336 [Wild Type]; assay: Inhibition of PIK3CA (Wild Type) Kinase Activity
PIK3CA = PIK3CA (UniProt P42336); assay: Inhibition of PIK3CA Kinase Activity
Chain of PIK3CA (P42336 whole entry, looked up): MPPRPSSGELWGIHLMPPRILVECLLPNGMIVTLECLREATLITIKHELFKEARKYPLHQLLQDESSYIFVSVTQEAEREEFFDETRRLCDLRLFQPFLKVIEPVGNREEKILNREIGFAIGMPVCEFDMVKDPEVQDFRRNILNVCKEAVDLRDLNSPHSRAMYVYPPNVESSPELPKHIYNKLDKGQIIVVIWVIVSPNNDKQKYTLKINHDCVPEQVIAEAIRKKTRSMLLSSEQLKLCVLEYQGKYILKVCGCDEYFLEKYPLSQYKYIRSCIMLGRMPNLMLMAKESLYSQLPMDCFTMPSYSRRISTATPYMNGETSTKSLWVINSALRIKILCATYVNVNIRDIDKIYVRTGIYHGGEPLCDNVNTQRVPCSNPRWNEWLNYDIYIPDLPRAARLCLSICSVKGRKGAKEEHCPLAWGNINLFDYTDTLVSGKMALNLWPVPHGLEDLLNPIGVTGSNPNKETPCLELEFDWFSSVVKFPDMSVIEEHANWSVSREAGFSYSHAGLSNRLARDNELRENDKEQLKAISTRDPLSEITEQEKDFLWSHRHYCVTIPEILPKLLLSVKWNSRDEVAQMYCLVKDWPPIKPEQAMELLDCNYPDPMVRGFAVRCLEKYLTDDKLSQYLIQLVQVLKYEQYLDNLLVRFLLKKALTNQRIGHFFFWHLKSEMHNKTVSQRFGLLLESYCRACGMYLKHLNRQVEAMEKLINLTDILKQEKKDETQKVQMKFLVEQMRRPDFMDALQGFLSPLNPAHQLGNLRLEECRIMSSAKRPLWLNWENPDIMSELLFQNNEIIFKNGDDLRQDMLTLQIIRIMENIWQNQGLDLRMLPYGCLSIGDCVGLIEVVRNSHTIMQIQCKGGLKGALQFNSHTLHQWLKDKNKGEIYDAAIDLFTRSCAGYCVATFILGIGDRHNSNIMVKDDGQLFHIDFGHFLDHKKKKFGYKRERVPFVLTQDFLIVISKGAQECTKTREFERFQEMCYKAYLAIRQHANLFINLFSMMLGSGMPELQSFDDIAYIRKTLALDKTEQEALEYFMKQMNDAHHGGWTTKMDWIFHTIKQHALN

Chain of PIK3CA, P42336 [Wild Type] (P42336 whole entry, looked up): as above

Row | IC50 [1] [µM] | IC50 (PIK3CA) [µM] | Structure (SMILES)
1 | > 200 | > 200 | O=c1c(-c2ccccc2)c(N2CCOCC2)oc2ccccc12
2 | 28 | 4.4 | CCc1c(N2CCOCC2)oc2ccccc2c1=O
3 | 51 | > 200 | CC(C)c1c(N2CCOCC2)oc2ccccc2c1=O
4 | 2.6 | 15 | O=c1cc(N2CCOCC2)oc2ccccc12
5 | 31 | 68 | CCCc1c(N2CCOCC2)oc2ccccc2c1=O
6 | 25 | 48 | CCCCc1c(N2CCOCC2)oc2ccccc2c1=O
7 | > 200 | > 200 | O=c1c(Cc2ccccc2)c(N2CCOCC2)oc2ccccc12
8 | 33 | 40 | Cc1c(N2CCOCC2)oc2ccccc2c1=O
